# According to patent US6908935B2, “Calcium receptor modulating agents” (Amgen Inc., priority 2002, dated 2005):
# Target: T1, human parathyroid cell Ca^2+ receptor (hPCaR) (Homo sapiens, UniProt P41180)
# T1 construct: expressed in transfected cells
# T1 sequence (P41180 20-1078): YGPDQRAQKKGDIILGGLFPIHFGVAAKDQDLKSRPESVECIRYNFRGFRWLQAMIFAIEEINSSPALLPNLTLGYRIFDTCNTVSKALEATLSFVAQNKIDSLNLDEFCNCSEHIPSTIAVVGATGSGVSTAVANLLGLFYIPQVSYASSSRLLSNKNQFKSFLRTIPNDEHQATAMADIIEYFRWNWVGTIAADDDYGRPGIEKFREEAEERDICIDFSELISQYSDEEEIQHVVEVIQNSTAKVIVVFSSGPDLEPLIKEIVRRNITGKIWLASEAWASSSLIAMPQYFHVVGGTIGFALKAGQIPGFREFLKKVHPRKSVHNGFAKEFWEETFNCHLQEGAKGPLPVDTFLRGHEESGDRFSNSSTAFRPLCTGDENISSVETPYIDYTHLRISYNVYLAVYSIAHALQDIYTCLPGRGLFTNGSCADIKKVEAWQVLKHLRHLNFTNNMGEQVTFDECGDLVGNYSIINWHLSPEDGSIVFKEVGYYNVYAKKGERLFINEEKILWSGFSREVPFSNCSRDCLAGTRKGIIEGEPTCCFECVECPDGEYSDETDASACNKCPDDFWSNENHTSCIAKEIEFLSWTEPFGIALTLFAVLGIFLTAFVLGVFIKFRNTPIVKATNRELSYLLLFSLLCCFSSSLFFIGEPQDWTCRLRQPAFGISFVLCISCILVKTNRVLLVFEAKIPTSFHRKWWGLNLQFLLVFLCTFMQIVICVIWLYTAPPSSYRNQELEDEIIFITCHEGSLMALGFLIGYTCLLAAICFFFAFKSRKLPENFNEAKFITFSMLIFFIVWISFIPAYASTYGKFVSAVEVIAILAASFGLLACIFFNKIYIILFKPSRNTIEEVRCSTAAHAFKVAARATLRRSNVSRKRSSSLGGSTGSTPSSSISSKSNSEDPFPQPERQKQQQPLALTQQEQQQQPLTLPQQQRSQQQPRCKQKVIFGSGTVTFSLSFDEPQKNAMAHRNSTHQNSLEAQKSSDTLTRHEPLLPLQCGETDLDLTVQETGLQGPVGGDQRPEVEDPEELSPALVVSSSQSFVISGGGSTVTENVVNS
# Assay: [Ca2+]i measurement with fluo-3 in HEK 293 4.0-7 cells stably transfected with hPCaR
# Assay type: cell-based
# Conditions: fluo-3 fluorescence (485/530 nm), effect on [Ca^2+]i
# In short: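 Cytosolic [Ca2+] was read as fluo-3 fluorescence (ex 485/em 530 nm) after compound addition to washed cells. Cells were hPCaR-transfected HEK 293 clone 7, dye-loaded 30 min at 37 °C with 2 μM fluo-3 acetoxymethyl ester in HEPES-buffered saline pH 7.45 containing 1 mM CaCl2 and 0.5% BSA.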
row,EC50,Structure (SMILES)
1,≤ 10 µM,"C[C@@H](NCc1ccc(Cl)c(-c2ccc(C(F)(F)F)cc2)c1)c1cccc2ccccc12 [(1R)-N-((6-chloro-4′-(trifluoromethyl)-1,1′-biphenyl-3-yl)methyl)-1-(1-naphthalenyl)ethanamine]"
2,≤ 10 µM,"C[C@@H](NCc1ccc(Cl)c(-c2ccc(C(F)(F)F)cc2)c1)c1ccccc1 [(1R)-N-((6-chloro-4′-(trifluoromethyl)-1,1′-biphenyl-3-yl)methyl)-1-phenylethanamine]"
3,≤ 10 µM,"COc1ccc(-c2cc(CN[C@H](C)c3cccc(OC)c3)ccc2F)cc1 [(1R)-N-((6-fluoro-4′-(methyloxy)-1,1′-biphenyl-3-yl)methyl)-1-(3-(methyloxy)phenyl)ethanamine]"
4,≤ 10 µM,"COc1ccc(-c2cc(CN[C@H](C)c3ccc(OC)cc3)ccc2F)cc1 [(1R)-N-((6-fluoro-4′-(methyloxy)-1,1′-biphenyl-3-yl)methyl)-1-(4-(methyloxy)phenyl)ethanamine]"
5,≤ 10 µM,"COc1ccc(-c2cc(CN[C@H](C)c3ccc(C)cc3)ccc2F)cc1 [(1R)-N-((6-fluoro-4′-(methyloxy)-1,1′-biphenyl-3-yl)methyl)-1-(4-methylphenyl)ethanamine]"
6,≤ 10 µM,"C[C@@H](NCc1ccc(F)c(-c2ccc(C(F)(F)F)cc2)c1)c1ccccc1 [(1R)-N-((6-fluoro-4′-(trifluoromethyl)-1,1′-biphenyl-3-yl)methyl)-1-phenylethanamine]"
7,≤ 10 µM,"C[C@@H](NCc1ccc(I)c(-c2ccc(C(F)(F)F)cc2)c1)c1cccc2ccccc12 [(1R)-N-((6-iodo-4′-(trifluoromethyl)-1,1′-biphenyl-3-yl)methyl)-1-(1-naphthalenyl)ethanamine]"
8,≤ 10 µM,"COc1cccc([C@@H](C)NCc2ccc(I)c(-c3ccc(C(F)(F)F)cc3)c2)c1 [(1R)-N-((6-iodo-4′-(trifluoromethyl)-1,1′-biphenyl-3-yl)methyl)-1-(3-(methyloxy)phenyl)ethanamine]"
9,≤ 10 µM,"C[C@@H](NCc1ccc(I)c(-c2ccc(C(F)(F)F)cc2)c1)c1ccccc1 [(1R)-N-((6-iodo-4′-(trifluoromethyl)-1,1′-biphenyl-3-yl)methyl)-1-phenylethanamine]"
10,≤ 10 µM,"COc1ccc(CN[C@@H](C)c2ccccc2)cc1-c1ccc(C(F)(F)F)cc1 [(1S)-N-((6-(methyloxy)-4′-(trifluoromethyl)-1,1′-biphenyl-3-yl)methyl)-1-phenylethanamine]"
11,≤ 10 µM,"C[C@@H](NCc1cccc(-c2nccs2)c1)c1cccc2ccccc12 [Example 217, (1R)-1-(1-naphthalenyl)-N-((3-(1,3-thiazol-2-yl)phenyl)methyl)ethanamine]"
12,≤ 10 µM,"C[C@@H](NCc1cccc(-c2nccs2)c1)c1ccccc1 [Example 218, (1R)-1-phenyl-N-((3-(1,3-thiazol-2-yl)phenyl)methyl)ethanamine]"
13,≤ 10 µM,"COc1cccc([C@@H](C)NCc2cccc(-c3ccoc3)c2)c1 [Example 222, (1R)-N-((3-(3-furanyl)phenyl)methyl)-1-(3-(methyloxy)phenyl)ethanamine]"
14,≤ 10 µM,"COc1ccc([C@@H](C)NCc2cccc(-c3ccoc3)c2)cc1 [Example 223, (1R)-N-((3-(3-furanyl)phenyl)methyl)-1-(4-(methyloxy)phenyl)ethanamine]"
15,≤ 10 µM,"Cc1ccc([C@@H](C)NCc2cccc(-c3ccoc3)c2)cc1 [Example 224, (1R)-N-((3-(3-furanyl)phenyl)methyl)-1-(4-methylphenyl)ethanamine]"
16,≤ 10 µM,"C[C@@H](NCc1cccc(-c2ccoc2)c1)c1cccc2ccccc12 [Example 225, (1R)-N-((3-(3-furanyl)phenyl)methyl)-1-(1-naphthalenyl)ethanamine]"
17,≤ 10 µM,"C[C@@H](NCc1cccc(-c2ccoc2)c1)c1ccccc1 [Example 226, (1R)-N-((3-(3-furanyl)phenyl)methyl)-1-phenylethanamine]"

# Second part, the compound before the results:
row,Structure (SMILES),EC50
1,"CCOc1ccc(CN[C@H](C)c2ccccc2)cc1-c1ccc(OC)cc1 [(1R)-N-((6-(ethyloxy)-4′-(methyloxy)-1,1′-biphenyl-3-yl)methyl)-1-phenylethanamine]",≤ 10 µM
2,"COc1cccc([C@@H](C)NCc2ccc(OC)c(-c3ccccc3)c2)c1 [(1R)-N-((6-(methyloxy)-1,1′-biphenyl-3-yl)methyl)-1-(3-(methyloxy)phenyl)ethanamine]",≤ 10 µM
3,"COc1ccc([C@@H](C)NCc2ccc(OC)c(-c3ccccc3)c2)cc1 [(1R)-N-((6-(methyloxy)-1,1′-biphenyl-3-yl)methyl)-1-(4-(methyloxy)phenyl)ethanamine]",≤ 10 µM
4,"COc1ccc(CN[C@H](C)c2ccc(C)cc2)cc1-c1ccccc1 [(1R)-N-((6-(methyloxy)-1,1′-biphenyl-3-yl)methyl)-1-(4-methylphenyl)ethanamine]",≤ 10 µM
5,"COc1ccc(CN[C@H](C)c2cccc3ccccc23)cc1-c1cccc(OC(F)(F)F)c1 [(1R)-N-((6-(methyloxy)-3′-((trifluoromethyl)oxy)-1,1′-biphenyl-3-yl)methyl)-1-(1-naphthalenyl)ethanamine]",≤ 10 µM
6,"COc1ccc(CN[C@H](C)c2ccccc2)cc1-c1cccc(OC(F)(F)F)c1 [(1R)-N-((6-(methyloxy)-3′-((trifluoromethyl)oxy)-1,1′-biphenyl-3-yl)methyl)-1-phenylethanamine]",≤ 10 µM
7,"COc1ccc(CN[C@H](C)c2cccc3ccccc23)cc1-c1cccc(C(F)(F)F)c1 [(1R)-N-((6-(methyloxy)-3′-(trifluoromethyl)-1,1′-biphenyl-3-yl)methyl)-1-(1-naphthalenyl)ethanamine]",≤ 10 µM
8,"COc1ccc(CN[C@H](C)c2ccccc2)cc1-c1cccc(C(F)(F)F)c1 [(1R)-N-((6-(methyloxy)-3′-(trifluoromethyl)-1,1′-biphenyl-3-yl)methyl)-1-phenylethanamine]",≤ 10 µM
9,"COc1ccc(CN[C@H](C)c2cccc3ccccc23)cc1-c1ccc(OC(F)(F)F)cc1 [(1R)-N-((6-(methyloxy)-4′-((trifluoromethyl)oxy)-1,1′-biphenyl-3-yl)methyl)-1-(1-naphthalenyl)ethanamine]",≤ 10 µM
10,"COc1ccc(CN[C@H](C)c2ccccc2)cc1-c1ccc(OC(F)(F)F)cc1 [(1R)-N-((6-(methyloxy)-4′-((trifluoromethyl)oxy)-1,1′-biphenyl-3-yl)methyl)-1-phenylethanamine]",≤ 10 µM
11,"COc1ccc(CN[C@H](C)c2cccc3ccccc23)cc1-c1ccc(S(C)(=O)=O)cc1 [(1R)-N-((6-(methyloxy)-4′-(methylsulfonyl)-1,1′-biphenyl-3-yl)methyl)-1-(1-naphthalenyl)ethanamine]",≤ 10 µM
12,"COc1cccc([C@@H](C)NCc2ccc(OC)c(-c3ccc(S(C)(=O)=O)cc3)c2)c1 [(1R)-N-((6-(methyloxy)-4′-(methylsulfonyl)-1,1′-biphenyl-3-yl)methyl)-1-(3-(methyloxy)phenyl)ethanamine]",≤ 10 µM
13,"COc1ccc(CN[C@H](C)c2ccccc2)cc1-c1ccc(S(C)(=O)=O)cc1 [(1R)-N-((6-(methyloxy)-4′-(methylsulfonyl)-1,1′-biphenyl-3-yl)methyl)-1-phenylethanamine]",≤ 10 µM
14,"COc1ccc(CN[C@H](C)c2cccc3ccccc23)cc1-c1ccc(C(F)(F)F)cc1 [(1R)-N-((6-(methyloxy)-4′-(trifluoromethyl)-1,1′-biphenyl-3-yl)methyl)-1-(1-naphthalenyl)ethanamine]",≤ 10 µM
15,"COc1ccc(CN[C@H](C)c2ccccc2)cc1-c1ccc(C(F)(F)F)cc1 [(1R)-N-((6-(methyloxy)-4′-(trifluoromethyl)-1,1′-biphenyl-3-yl)methyl)-1-phenylethanamine]",≤ 10 µM
16,"C[C@@H](NCc1ccc(Cl)c(-c2ccc(OC(F)(F)F)cc2)c1)c1cccc2ccccc12 [(1R)-N-((6-chloro-4′-((trifluoromethyl)oxy)-1,1′-biphenyl-3-yl)methyl)-1-(1-naphthalenyl)ethanamine]",≤ 10 µM
17,"COc1cccc([C@@H](C)NCc2ccc(Cl)c(-c3ccc(OC(F)(F)F)cc3)c2)c1 [(1R)-N-((6-chloro-4′-((trifluoromethyl)oxy)-1,1′-biphenyl-3-yl)methyl)-1-(3-(methyloxy)phenyl)ethanamine]",≤ 10 µM
18,"C[C@@H](NCc1ccc(Cl)c(-c2ccc(OC(F)(F)F)cc2)c1)c1ccccc1 [(1R)-N-((6-chloro-4′-((trifluoromethyl)oxy)-1,1′-biphenyl-3-yl)methyl)-1-phenylethanamine]",≤ 10 µM
